Measurements from publication PMC2099433, “The binding site for neohesperidin dihydrochalcone at the human sweet taste receptor” (BMC Structural Biology, 2007).
Where a chain is given by its changes, count along the chain named. Where a SMILES comes first, the peptide text is derived from it.

How the values were obtained:
[1] = target: T1, hTAS1R2 + hTAS1R3 A733V^5.46 (Homo sapiens, UniProt Q7RTX0+Q8TE23, A733V); test: Calcium response (FLIPR), hTAS1R3 mutant coexpressed with hTAS1R2; type: cell-based; conditions: variant A733V^5.46; for Emax: read-out: maximal signal (% of wt)
T1 construct: expressed in transfected cells; host or cells: HEK293T cells stably expressing G16Gust44
T1 sequence (Q8TE23 20-839): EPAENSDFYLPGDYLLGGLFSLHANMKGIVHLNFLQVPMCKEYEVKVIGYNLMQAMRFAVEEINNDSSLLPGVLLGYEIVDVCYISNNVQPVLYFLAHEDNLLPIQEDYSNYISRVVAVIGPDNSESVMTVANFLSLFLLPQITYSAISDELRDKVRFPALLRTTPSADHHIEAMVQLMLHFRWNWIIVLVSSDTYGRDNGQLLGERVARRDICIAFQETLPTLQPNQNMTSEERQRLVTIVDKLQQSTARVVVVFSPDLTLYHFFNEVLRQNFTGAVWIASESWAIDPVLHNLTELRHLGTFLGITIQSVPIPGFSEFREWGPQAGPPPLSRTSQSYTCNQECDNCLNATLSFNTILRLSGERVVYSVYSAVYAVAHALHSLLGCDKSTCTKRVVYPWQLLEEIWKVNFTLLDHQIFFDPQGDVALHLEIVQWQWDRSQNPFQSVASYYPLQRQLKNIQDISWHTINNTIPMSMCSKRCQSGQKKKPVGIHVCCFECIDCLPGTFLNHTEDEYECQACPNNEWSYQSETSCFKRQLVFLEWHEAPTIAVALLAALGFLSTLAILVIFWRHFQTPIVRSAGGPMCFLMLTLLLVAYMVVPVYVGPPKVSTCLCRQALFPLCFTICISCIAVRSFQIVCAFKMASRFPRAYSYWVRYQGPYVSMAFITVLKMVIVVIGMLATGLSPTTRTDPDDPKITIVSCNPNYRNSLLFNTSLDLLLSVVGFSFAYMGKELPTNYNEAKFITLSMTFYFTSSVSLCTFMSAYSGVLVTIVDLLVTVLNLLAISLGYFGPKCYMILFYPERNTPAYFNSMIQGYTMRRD
T1 sequence (Q7RTX0 21-852 A733V): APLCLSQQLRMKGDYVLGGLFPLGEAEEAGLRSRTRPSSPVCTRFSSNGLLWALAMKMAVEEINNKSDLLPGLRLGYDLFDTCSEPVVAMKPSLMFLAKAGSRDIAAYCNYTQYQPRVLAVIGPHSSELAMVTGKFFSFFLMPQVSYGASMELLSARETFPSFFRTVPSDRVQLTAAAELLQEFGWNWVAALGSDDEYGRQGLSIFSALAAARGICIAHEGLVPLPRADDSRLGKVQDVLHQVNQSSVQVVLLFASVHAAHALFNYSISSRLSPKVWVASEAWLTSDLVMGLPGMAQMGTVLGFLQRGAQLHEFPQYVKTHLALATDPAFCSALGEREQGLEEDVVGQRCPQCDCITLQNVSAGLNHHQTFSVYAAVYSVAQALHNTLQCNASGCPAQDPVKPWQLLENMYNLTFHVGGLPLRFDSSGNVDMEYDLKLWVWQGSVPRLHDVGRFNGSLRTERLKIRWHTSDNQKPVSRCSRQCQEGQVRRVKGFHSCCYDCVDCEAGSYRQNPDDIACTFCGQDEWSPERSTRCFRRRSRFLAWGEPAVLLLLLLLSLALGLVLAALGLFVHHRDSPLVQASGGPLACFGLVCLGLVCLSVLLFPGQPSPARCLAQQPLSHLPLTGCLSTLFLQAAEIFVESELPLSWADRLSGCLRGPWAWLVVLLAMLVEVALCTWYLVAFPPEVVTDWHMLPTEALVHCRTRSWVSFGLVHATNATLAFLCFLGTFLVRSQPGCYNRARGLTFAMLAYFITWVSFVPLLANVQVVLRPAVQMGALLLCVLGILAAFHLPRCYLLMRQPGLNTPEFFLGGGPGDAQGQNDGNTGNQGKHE
Summary of the method: (§1)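 HEK293T/G16Gust44, transient transfection of HSV-tagged TAS1R2 + TAS1R3 mutants; Fluo4-AM loading 1 h at 24 h; sweet tastants in C1 solution; FLIPR Ca2+ read; ΔF/F, mock-subtracted; ≥3 independent expts in duplicate.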

[2] = target: T2, hTAS1R2 + hTAS1R3 Y699L^4.60 (Homo sapiens, UniProt Q7RTX0+Q8TE23, Y699L); test: as above; type: cell-based; conditions: variant Y699L^4.60; for Emax: read-out: maximal signal (% of wt)
T2 construct: expressed in transfected cells; host or cells: HEK293T cells stably expressing G16Gust44
T2 sequence (Q7RTX0 21-852 Y699L): T1 sequence (Q7RTX0 21-852 A733V) with Y679L, V713A
T2 sequence (Q8TE23 20-839): T1 sequence (Q8TE23 20-839)
Summary of the method: as §1

Row | Compound | EC50 [1] [µM] | Emax [1] [%] | EC50 [2] [µM] | Emax [2] [%]
1 | COc1ccc(CCC(=O)c2c(O)cc(O[C@@H]3O[C@H](CO)[C@@H](O)[C@H](O)[C@H]3O[C@@H]3O[C@@H](C)[C@H](O)[C@@H](O)[C@H]3O)cc2O)cc1O [NHDC, neohesperidin dihydrochalcone] | 100 ± 20 | 133 ± 8 | 700 ± 100 | 83 ± 40
2 | COC(=O)[C@H](Cc1ccccc1)NC(=O)[C@@H](N)CC(=O)O [aspartame] (HELM PEPTIDE1{D.F.[CO[*:1]]}$$$$V2.0) | 1100 ± 300 | 92 ± 80 | 1600 ± 400 | 78 ± 9
